# Test system: Pseudomonas aeruginosa (ATCC 27853)
# Test: Pseudomonas aeruginosa wound infection in pigs (wound chambers, 4 hour time course)
# Format: in vivo, Göttinger minipigs
# Procedure: The bacterial strain, Pseudomonas aeruginosa, used in the study was ATCC 27853. The amino acid sequence of Novispirin G10 is shown in SEQ ID NO: 16.
# Novispirin G10 was diluted in 0.01% acetic acid containing 0.1% BSA with a final concentration of 1 mg (substrate)/ml (solution); 100 micrograms/ml and 10 micrograms/ml. The carrier control was 0.01% acetic acid containing 0.1% BSA.
# The chambers are made out of titanium, have a screw top cover (also made out of titanium) and have an inner diameter of 25 mm.
# After providing permission to conduct experiments with vertebrates in compliance with German animal protection laws, Göttinger minipigs (Fa. Ellegaard, Dalmose, Denmark, male, No. 86242 and 86260, 12 months old, 35 kg weight) were chosen to implant the chambers on. The pigs were kept at least 2 weeks in the stable, fed a standard porcine diet and housed at 20° C. to 30° C. in an atmosphere of approximately 65% humidity with a light cycle of 12 hours on and 12 hours off. The pig used for this study appeared during the experiments clinically healthy—rectal temperature and body weight remained normal over the observed period.
# Before wounding the skin was surgically prepared, washed with soap and desinfected with Octenisept (S&M, Norderstedt, Germany) for five minutes. Twelve wound chambers were implanted on the pigs back and flank between the base of the scapula and the iliac crest. The wounds were spaced a minimum of 5 cm apart and were created in four rows parallel to the columna vertebralis, two rows on each side of the columna vertebralis. The exact size and shape of the wounds were ensured by a special custom-made “round-scalpel”, which has a diameter of 33 mm. Epidermal, dermal subcutaneous tissue was removed, possible bleedings stanched by bipolar diathermy. The chambers were placed with an additionally secant v-incision at positions 6 respectively 12 o'clock on the musculus thoracicus longus fascia and the muscle fascia of the external ripcage muscles. The incisions were sutured with 4-0 Prolene followed by the closure of the chambers. Povidone-iodine salve (Betaisodonna-salve, Mundipharma, Austria) was smothered on the wound edges. The chambers were dressed with paraffin gauze (Jelonet, Smith & Nephew, Lohfelden, Germany) and sterile compresses (Johnson & Johnson, Gargrave, UK). Dressings were changed every second day under sedation (as described above).
# Bacterial Background of each chamber was measured every second day to detect potential contamination. One contaminated chamber was detected. Eight days post operation all chambers were inoculated with bacteria.
# For bacteria progeny, Pseudomonas aeruginosa (ATCC 27853) was plated on LB-Agar plates and incubated at 37° C. for 18 hours. One colony was picked, and transferred into 3 ml LB-Medium and grown over night at 37° C. at 300 rpm. The over night culture was diluted in 50 ml fresh LB-Medium and incubated for 2.5 hours at 37° C. at 200 rpm.
# Bacteria were centrifuged at 4000 rpm, 5 min (Mergafuge 1.0 R, Heraeus, Hanau, Germany), and the pellet was resuspended in PBS. The amount of containing bacteria was determined by OD600 nm-measurement and calculated as follows: Colony forming Unit/ml=OD600 nm×2.5×10^8 (bacteria)
# To inoculate one chamber, 5×10^8CFU were used.
# The establishment of the infection was proven by the measurment of bacterial counts per chamber. All inoculated chambers were infected after two days.
# At fourth day post infection, the antimicrobial effect of the testing substrate was measured in a time course of 4 hours in duration. Each chamber was cleaned before starting the time course, wound fluid was selected and blood clots were discarded. Before starting the time course each chamber was inoculated again with 1×10^8 CFU Pseudomonas aeruginosa to get an equal bacterial amount for each chamber. One ml of the prepared samples with diluted test substrate and carrier control were applied in selected chambers.
# Each chamber was rinsed with the applied solution several times. […]
substance,measurement,setting,value
Novispirin G10: novispirin antimicrobial polypeptide; amino acid sequence shown in SEQ ID NO: 16 (KNLRRIIRKGIHIIKKYG; Synthetic antimicrobial peptide),Mean CFU per ml sample volume (chamber fluid),"1 mg applied (1 ml of 1 mg/ml), 0.05 hours",667 CFU/ml
same,Mean CFU per ml sample volume (chamber fluid),"1 mg applied (1 ml of 1 mg/ml), 1 hour",1933 CFU/ml
same,Mean CFU per ml sample volume (chamber fluid),"1 mg applied (1 ml of 1 mg/ml), 2 hours",1167 CFU/ml
same,Mean CFU per ml sample volume (chamber fluid),"1 mg applied (1 ml of 1 mg/ml), 3 hours",517 CFU/ml
same,Mean CFU per ml sample volume (chamber fluid),"1 mg applied (1 ml of 1 mg/ml), 4 hours",733 CFU/ml
same,Mean CFU per ml sample volume (chamber fluid),"10 micrograms applied (1 ml of 10 micrograms/ml), 0.05 hours",413869 CFU/ml
same,Mean CFU per ml sample volume (chamber fluid),"10 micrograms applied (1 ml of 10 micrograms/ml), 1 hour",1225733 CFU/ml
same,Mean CFU per ml sample volume (chamber fluid),"10 micrograms applied (1 ml of 10 micrograms/ml), 2 hours",34811 CFU/ml
same,Mean CFU per ml sample volume (chamber fluid),"10 micrograms applied (1 ml of 10 micrograms/ml), 3 hours",9612 CFU/ml
same,Mean CFU per ml sample volume (chamber fluid),"10 micrograms applied (1 ml of 10 micrograms/ml), 4 hours",17322 CFU/ml
same,Mean CFU per ml sample volume (chamber fluid),"100 micrograms applied (1 ml of 100 micrograms/ml), 0.05 hours",7383 CFU/ml
same,Mean CFU per ml sample volume (chamber fluid),"100 micrograms applied (1 ml of 100 micrograms/ml), 1 hour",138181 CFU/ml
same,Mean CFU per ml sample volume (chamber fluid),"100 micrograms applied (1 ml of 100 micrograms/ml), 2 hours",167413 CFU/ml
same,Mean CFU per ml sample volume (chamber fluid),"100 micrograms applied (1 ml of 100 micrograms/ml), 3 hours",11661 CFU/ml
same,Mean CFU per ml sample volume (chamber fluid),"100 micrograms applied (1 ml of 100 micrograms/ml), 4 hours",2467 CFU/ml
